In patent US6528535B2, “Bicyclic inhibitors of protein farnesyl transferase” (Warner-Lambert Company, priority 1997, dated 2003):
Where a name gives a salt, the structure may show the parent alone.

target: T1, SF9 affinity purified rat FPT (Rattus norvegicus, UniProt Q02293+Q04631); experiment: PFT (farnesyl protein transferase) inhibitory activity, radiolabeled farnesyl pyrophosphate / biotinyl peptide bead assay; format: biochemical; conditions: Examples 56-74, parallel synthesis array: single test; values adjusted to account for the purity of the sample; read-out: FTase, IC50
T1 construct: made in house; host or cells: Sf9 insect cells
Description: The protein:farnesyl transferase (PFT) or farnesyl protein transferase (FPT) inhibitory activity of compounds of the present invention were assayed in HEPES buffer (pH 7.4) containing 5 mM potassium phosphate and 20 μM ZnCl2. The solution also contained 5 mM DTT (dithiothreitol), 5 mM MgCl2, and 0.1% PEG 8000. Assays were performed in 96 well plates (Wallec) and employed solutions composed of varying concentrations of a compound of the present invention in 10% DMSO (dimethylsulfoxide). Upon addition of both substrates, radiolabeled farnesyl pyrophosphate ([1^3H], specific activity 15-30 Ci/mmol, final concentration 134 nM) and (biotinyl)-Ahe-Thr-Lys-Cys-Val-Ile-Met ([3aS[3a alpha, 4 beta, 6a alpha]-hexahydro-2-oxo-1H-thieno[3,4-d]imidazole-5-pentanoic acid]-[7-aminoheptanoic acid]-Thr-Lys-Cys-Val-Ile-Met) (Ahe is 7-aminoheptanoic acid, Thr is threonine, Lys is lysine, Cys is cysteine, Val is valine, Ile is isoleucine, and Met is methionine) (final concentration 0.2 μM), the enzyme reaction was started by addition of SF9 affinity purified rat FPT. After incubation at 30° C. for 30 minutes, the reaction was terminated by diluting the reaction 2.5-fold with a stop buffer containing 1.5 M magnesium acetate, 0.2 M H3PO4, 0.5% BSA (bovine serum albumin), and strepavidin beads (Amersham) at a concentration of 1.3 mg/mL. After allowing the plate to settle for 30 minutes at room temperature, radioactivity was quantitated on a microbeta counter (Model 1450, Wallec). The assay was also carried out without 5 mM potassium phosphate.

Going from `O=C1/C(=C/c2ccc(F)cc2)CCc2cc(OCCn3ccnc3)ccc21` [Example 60, 2-[(E)-1-(4-Fluorophenyl)methylidene]-6-[2-(1H-1-imidazolyl)ethoxy]-1,2,3,4-tetrahydro-1-naphthalenone] to `O=C1/C(=C/c2ccc(I)cc2)CCc2cc(OCCn3ccnc3)ccc21` [Example 70, 6-[2-(1H-1-Imidazolyl)ethoxy]-2-[(E)-1-(4-iodophenyl)methylidene]-1,2,3,4-tetrahydro-1-naphthalenone], the IC50 rises from 180 nM to 320 nM (1.8-fold). The first is the more potent here.

`O=C1/C(=C/c2ccccc2C(F)(F)F)CCc2cc(OCCn3ccnc3)ccc21` [Example 67, 6-[2-(1H-1-Imidazolyl)ethoxy]-2-(E)-1-[2-(trifluoromethyl)phenyl]methylidene-1,2,3,4-tetrahydro-1-naphthalenone] and `O=C1/C(=C/c2cccc(Cl)c2Cl)CCc2cc(OCCn3ccnc3)ccc21` [Example 61, 2-[(E)-1-(2,3-Dichlorophenyl)methylidene]-6-[2-(1H-1-imidazolyl)ethoxy]-1,2,3,4-tetrahydro-1-naphthalenone] are within 1.5-fold of each other in IC50: 710 nM for the first, 570 nM for the second.

`COc1cc(OC)c(/C=C2\CCc3cc(OCCn4ccnc4)ccc3C2=O)c(OC)c1` [Example 68, 6-[2-(1H-1-Imidazolyl)ethoxy]-2-[(E)-1-(2,4,6-trimethoxyphenyl)methylidene]-1,2,3,4-tetrahydro-1-naphthalenone] and `COc1ccc(OC)c(/C=C2\CCc3cc(OCCn4ccnc4)ccc3C2=O)c1` [Example 65] are within 1.5-fold of each other in IC50: 590 nM for the first, 630 nM for the second.

`COc1ccc(/C=C2\CCc3cc(OCCn4ccnc4)ccc3C2=O)c(OC)c1OC` [Example 69, 6-[2-(1H-1-Imidazolyl)ethoxy]-2-[(E)-1-(2,3,4-trimethoxyphenyl)methylidene]-1,2,3,4-tetrahydro-1-naphthalenone] and `COc1cccc(/C=C2\CCc3cc(OCCn4ccnc4)ccc3C2=O)c1` [Example 73, 6-[2-(1H-1-Imidazolyl)ethoxy]-2-[(E)-1-(3-methoxyphenyl)methylidene]-1,2,3,4-tetrahydro-1-naphthalenone] are within 1.5-fold of each other in IC50: 1300 nM for the first, 1140 nM for the second.

First: CN(C)c1ccc(/C=C2\CCc3cc(OCCn4ccnc4)ccc3C2=O)cc1 [Example 71]
Second: O=C1/C(=C/c2ccc(Cl)cc2)CCc2cc(OCCn3ccnc3)ccc21 [Example 58, 2-[(E)-1-(4-Chlorophenyl)methylidene]-6-[2-(1H-1-imidazolyl)ethoxy]-1,2,3,4-tetrahydro-1-naphthalenone]
The IC50 of the first is 1.5-fold lower: 110 nM for the first, 170 nM for the second. The first is the more potent here.

Compared with `O=C1/C(=C/c2ccc(Cl)c(Cl)c2)CCc2cc(OCCn3ccnc3)ccc21` [Example 63, 2-[(E)-1-(3,4-Dichlorophenyl)methylidene]-6-[2-(1H-1-imidazolyl)ethoxy]-1,2,3,4-tetrahydro-1-naphthalenone], `Cc1cccc(/C=C2\CCc3cc(OCCn4ccnc4)ccc3C2=O)c1` [Example 74, 6-[2-(1H-1-Imidazolyl)ethoxy]-2-[(E)-1-(3-methylphenyl)methylidene]-1,2,3,4-tetrahydro-1-naphthalenone] is 2.1-fold higher in IC50: 890 nM for the first, 1890 nM for the second. The first is the more potent here.

Going from `O=C1/C(=C/c2ccc3c(c2)OCO3)CCc2cc(OCCn3ccnc3)ccc21` [Example 59, 2-[(E)-1-(1,3-Benzodioxol-5-yl)methylidene]-6-[2-(1H-1-imidazolyl)ethoxy]-1,2,3,4-tetrahydro-1-naphthalenone] to `CC(C)(C)c1ccc(/C=C2\CCc3cc(OCCn4ccnc4)ccc3C2=O)cc1` [Example 72, 2-(E)-1-[4-(tert-Butyl)phenyl]methylidene-6-[2-(1H-1-imidazolyl)ethoxy]-1,2,3,4-tetrahydro-1-naphthalenone], the IC50 rises from 210 nM to 1200 nM (5.7-fold).

same assay, conditions: average of two tests unless n is given in parentheses; read-out: FTase, IC50

Going from `O=C1CCCc2cc(OC(Cn3ccnc3)c3ccccc3)ccc21` (centres unmarked) [Example 80, 6-[2-(1H-1-Imidazolyl)-1-phenylethoxy]-1,2,3,4-tetrahydro-1-naphthalenone] to `O=C1CCCc2cc(OCCn3ccnc3)ccc21` [Example 1, 6-(2-Imidazole-1-yl-ethoxy)-3,4-dihydro-2H-naphthalen-1-one], the IC50 rises from 73 nM to 2000 nM (27-fold). The first is the more potent here.

`O=C(O)c1ccc(C=C2CCc3cc(OCCc4c[nH]cn4)ccc3C2=O)s1` [Example 38, 5-{6-[2-(1H-Imidazol-4-yl)-ethoxy]-1-oxo-3,4-dihydro-1H-naphthalen-2-ylidenemethyl}-thiophene-2-carboxylic acid] and `O=C1C(=Cc2ccc(Cl)s2)CCc2cc(OCCc3c[nH]cn3)ccc21` [Example 36, 2-(5-Chloro-thiophen-2-ylmethylene)-6-[2-(1H-imidazole-4-yl)-ethoxy]-3,4-dihydro-2H-naphthalen-1-one, hydrochloride] are within 1.5-fold of each other in IC50: 4300 nM for the first, 3500 nM for the second.

Compared with `O=C1CCCc2cc(OCCc3c[nH]cn3)ccc21` [Example 27, 6-[2-(1H-Imidazole4-yl)-ethoxy]-3,4-dihydro-2H-naphthalen-1-one, monohydrochloride], `Cc1nccn1CCOc1ccc2c(c1)CCCC2=O` [Example 2, 6-[2-(2-Methyl-imidazole-1-yl)-ethoxy]-3,4-dihydro-2H-naphthalen-1-one] is 4.7-fold higher in IC50: 1790 nM for the first, 8400 nM for the second. The first is the more potent here.

First: CCN(CC)CCOc1ccc(C=C2CCc3cc(OCCn4ccnc4)ccc3C2=O)cc1 [Example 8, 2-[4-(2-Diethylamino-ethoxy)-benzylidene]-6-(2-imidazole-1-yl-ethoxy)-3,4-dihydro-2H-naphthalen-1-one]
Second: O=C1C(=Cc2ccccc2)CCc2cc(OCCn3ccnc3)ccc21 [Example 9, 2-Benzylidene-6-(2-imidazole-1-yl-ethoxy)-3,4-dihydro-2H-naphthalen-1-one]
The IC50 of the first is 50-fold higher: 11900 nM for the first, 240 nM for the second.

First: O=C(O)c1ccc(C=C2CCc3cc(OCCc4c[nH]cn4)ccc3C2=O)cc1 [Example 35, 4-{6-[2-(1H-Imidazole-4-yl)-ethoxy]-1-oxo-3,4-dihydro-1H-naphthalen-2-ylidenemethyl}-benzoic acid, ditrifluoroacetate]
Second: NC(=O)c1ccc(C=C2CCc3cc(OCCc4c[nH]cn4)ccc3C2=O)cc1 [Example 33, 4-{6-[2-(1H-Imidazole-4-yl)-ethoxy]-1-oxo-3,4-dihydro-1H-naphthalen-2-ylidenemethyl}-benzamide, monohydrochloride]
The IC50 of the first is 3.6-fold lower: 2000 nM for the first, 7300 nM for the second.

`O=C1C(=Cc2ccccn2)CCc2cc(OCCn3ccnc3)ccc21` [Example 3, 6-(2-Imidazole-1-yl-ethoxy)-2-pyridin-2-ylmethylene-3,4-dihydro-2H-naphthalen-1-one] and `COc1ccccc1C=C1CCc2cc(OCCn3ccnc3)ccc2C1=O` [Example 25, 6-(2-Imidazol-1-yl-ethoxy)-2-(2-methoxy-benzylidene)-3,4-dihydro-2H-naphthalen-1-one] are within 1.5-fold of each other in IC50: 2400 nM for the first, 2500 nM for the second.

Compared with `O=C1/C(=C/c2cccs2)COc2cc(OCCn3ccnc3)ccc21` [Example 52, 7-[2-(1H-1-Imidazolyl)ethoxy]-3-[(E)-1-(2-thienyl)methylidene]4-chromanone], `O=C(CON=C1CCCc2cc(OCCn3ccnc3)ccc21)NCC1(c2ccccc2)CCC1` [Example 82, 2-[6-(2-Imidazol-1-yl-ethoxy)-3,4-dihydro-2H-naphthalen-1-ylideneaminooxy]-N-(1-phenyl-cyclobutylmethyl)-acetamide] is 1.9-fold higher in IC50: 220 nM for the first, 420 nM for the second.

`CC(=C1CCc2cc(OCCc3c[nH]cn3)ccc2C1=O)c1ccccc1` [Example 40, 6-[2-(1H-Imidazole-4-yl)-ethoxy]-2-(1-phenyl-ethylidene)-3,4-dihydro-2H-naphthalen-1-one] was tested, and the IC50 was 4700 nM.
